This is an account of results in PubChem BioAssay AID1259407 (Chemical Carcinogenesis Research Information System (CCRIS), 2018).

In the data set the test system is CCRIS mutagenicity, Ames/micronucleus/aberration tests. The data set can be described thus: CCRIS mutagenicity studies. Particulars: Test System: AMES SALMONELLA TYPHIMURIUM
Where [1] appears, read: Strain/Indicator: TA98, Metabolic Activation: NONE, Method: PREINCUBATION

Calls of active or inactive are those of the source. How the calls were made is not given here.

With `FC(F)(F)c1cccc(Cl)c1`, the mutagenic call is, setting by setting: (Strain/Indicator: TA97, Metabolic Activation: HAMSTER, LIVER, S-9, AROCLOR 1254 (10%), Method: PREINCUBATION) “inactive; negative”; (Strain/Indicator: TA97, Metabolic Activation: HAMSTER, LIVER, S-9, AROCLOR 1254 (30%), Method: PREINCUBATION) “inactive; negative”; (Strain/Indicator: TA97, Metabolic Activation: NONE, Method: PREINCUBATION) “inactive; negative”; (Strain/Indicator: TA97, Metabolic Activation: RAT, LIVER, S-9, AROCLOR 1254 (10%), Method: PREINCUBATION) “inactive; negative”; (Strain/Indicator: TA97, Metabolic Activation: RAT, LIVER, S-9, AROCLOR 1254 (30%), Method: PREINCUBATION) “inactive; negative”; (Strain/Indicator: TA98, Metabolic Activation: HAMSTER, LIVER, S-9, AROCLOR 1254 (10%), Method: PREINCUBATION) “inactive; negative”. The mutagenic call by setting is: (Strain/Indicator: TA98, Metabolic Activation: HAMSTER, LIVER, S-9, AROCLOR 1254 (30%), Method: PREINCUBATION) “inactive; negative”; under setting [1], “inactive; negative”; (Strain/Indicator: TA98, Metabolic Activation: NONE, Method: STANDARD PLATE) “inactive; negative”; (Strain/Indicator: TA98, Metabolic Activation: RAT, LIVER, S-9, AROCLOR 1254 (10%), Method: PREINCUBATION) “inactive; negative”; (Strain/Indicator: TA98, Metabolic Activation: RAT, LIVER, S-9, AROCLOR 1254 (30%), Method: PREINCUBATION) “inactive; negative”; (Strain/Indicator: TA98, Metabolic Activation: RAT, LIVER, S-9, AROCLOR 1254, Method: STANDARD PLATE) “inactive; negative”. The mutagenic call by setting is: (Strain/Indicator: TA100, Metabolic Activation: HAMSTER, LIVER, S-9, AROCLOR 1254 (10%), Method: PREINCUBATION) “inactive; negative”; (Strain/Indicator: TA100, Metabolic Activation: HAMSTER, LIVER, S-9, AROCLOR 1254 (30%), Method: PREINCUBATION) “inactive; negative”; (Strain/Indicator: TA100, Metabolic Activation: NONE, Method: PREINCUBATION) “inactive; negative”; (Strain/Indicator: TA100, Metabolic Activation: NONE, Method: STANDARD PLATE) “inactive; negative”; (Strain/Indicator: TA100, Metabolic Activation: RAT, LIVER, S-9, AROCLOR 1254 (10%), Method: PREINCUBATION) “inactive; negative”; (Strain/Indicator: TA100, Metabolic Activation: RAT, LIVER, S-9, AROCLOR 1254 (30%), Method: PREINCUBATION) “inactive; negative”. The mutagenic call reads like this: (Strain/Indicator: TA100, Metabolic Activation: RAT, LIVER, S-9, AROCLOR 1254, Method: STANDARD PLATE) “inactive; negative”; (Strain/Indicator: TA1535, Metabolic Activation: HAMSTER, LIVER, S-9, AROCLOR 1254 (10%), Method: PREINCUBATION) “inactive; negative”; (Strain/Indicator: TA1535, Metabolic Activation: HAMSTER, LIVER, S-9, AROCLOR 1254 (30%), Method: PREINCUBATION) “inactive; negative”; (Strain/Indicator: TA1535, Metabolic Activation: NONE, Method: PREINCUBATION) “inactive; negative”; (Strain/Indicator: TA1535, Metabolic Activation: NONE, Method: STANDARD PLATE) “inactive; negative”; (Strain/Indicator: TA1535, Metabolic Activation: RAT, LIVER, S-9, AROCLOR 1254 (10%), Method: PREINCUBATION) “inactive; negative”. Further, the mutagenic call runs as follows: (Strain/Indicator: TA1535, Metabolic Activation: RAT, LIVER, S-9, AROCLOR 1254 (30%), Method: PREINCUBATION) “inactive; negative”; (Strain/Indicator: TA1535, Metabolic Activation: RAT, LIVER, S-9, AROCLOR 1254, Method: STANDARD PLATE) “inactive; negative”; (Strain/Indicator: TA1537, Metabolic Activation: HAMSTER, LIVER, S-9, AROCLOR 1254 (30%), Method: PREINCUBATION) “inactive; negative”; (Strain/Indicator: TA1537, Metabolic Activation: NONE, Method: PREINCUBATION) “inactive; negative”; (Strain/Indicator: TA1537, Metabolic Activation: NONE, Method: STANDARD PLATE) “inactive; negative”; (Strain/Indicator: TA1537, Metabolic Activation: RAT, LIVER, S-9, AROCLOR 1254 (30%), Method: PREINCUBATION) “inactive; negative”. For the same molecule, the mutagenic call is “inactive; negative” (Strain/Indicator: TA1537, Metabolic Activation: RAT, LIVER, S-9, AROCLOR 1254, Method: STANDARD PLATE); “inactive; negative” (Strain/Indicator: TA1538, Metabolic Activation: NONE, Method: STANDARD PLATE); “inactive; negative” (Strain/Indicator: TA1538, Metabolic Activation: RAT, LIVER, S-9, AROCLOR 1254, Method: STANDARD PLATE).
As for `Nc1cccc2nc3ccccc3nc12`, the mutagenic call is “active; positive” under setting [1] and “inactive; negative” (Strain/Indicator: TA98, Metabolic Activation: RAT, LIVER, S-9, PCB, Method: PREINCUBATION).
